Data taken from publication PMC7347136 (PLoS ONE, 2020).
Like-named read-outs stand apart in the source and are kept apart here.

Experiments:
MCL1 = system: MCL1; set-up: method as in earlier work; details: patient PBMCs; recommended phase 2 dose; cited from earlier work
THP-1 = test: Resazurin reduction cell viability assay; format: cell-based, human
Protocol: (§1) Solid tumor cell lines were seeded in 100 μl medium into 96-well plates at an appropriate cell number determined by a cell dilution assay (Cal51–2000 cells/well; Colo205, MCF10A and 184A1–3000 cells/well and MDA-MB-468, HCC1954–4000 cells/well). AML suspension cells were seeded in 96-well plates at approximately 3000 cells per well. Cells were incubated overnight at 37°C, 5% CO2. The following day, 100 μl fresh medium containing increasing concentrations of appropriate compound was added and the cells were incubated for up to 72 h at 37°C, 5% CO2. For pulse treatment of solid (adherent) tumor cell lines, medium was aspirated and replaced with fresh drug-free medium. For pulse treatment of suspension lines, plates were centrifuged at 478 xg for 5 min at the end of the incubation period with compound, medium containing compound was carefully aspirated and replaced with fresh compound-free medium. A total of 72 h after the start of treatment, 20 μl of a 10X stock of resazurin sodium salt (Sigma-Aldrich, Dorset, UK) prepared in medium was added to the cells and incubated for up to 3 h. […] was measured on the Wallac Victor plate reader (Cambridge, UK) at 544–595 nm. IC50/70/90 calculations were determined in XLFit.

A2780 = test: Resazurin reduction cell viability assay; format: cell-based, human; details: 6 h pulse
Protocol: as §1

184A1 = test: Resazurin reduction cell viability assay; format: cell-based, human
Protocol: as §1

OCI-AML5 = test: Resazurin reduction cell viability assay; format: cell-based, human
Protocol: as §1

MDA-MB-231 = test: Resazurin reduction cell viability assay; format: cell-based, human
Protocol: as §1

MOLM-13 = test: Resazurin reduction cell viability assay; format: cell-based, human
Protocol: as §1

KG-1 = test: Resazurin reduction cell viability assay; format: cell-based, human
Protocol: as §1

A549 = test: Resazurin reduction cell viability assay; format: cell-based, human
Protocol: as §1

ROCK2 = molecular target: T1, ROCK2 (Homo sapiens, UniProt O75116); test: Carna kinase panel screen; format: biochemical; details: read-out: % Inhibition ± SD
T1 construct: purchased Carna Biosciences
T1 sequence (O75116 whole entry): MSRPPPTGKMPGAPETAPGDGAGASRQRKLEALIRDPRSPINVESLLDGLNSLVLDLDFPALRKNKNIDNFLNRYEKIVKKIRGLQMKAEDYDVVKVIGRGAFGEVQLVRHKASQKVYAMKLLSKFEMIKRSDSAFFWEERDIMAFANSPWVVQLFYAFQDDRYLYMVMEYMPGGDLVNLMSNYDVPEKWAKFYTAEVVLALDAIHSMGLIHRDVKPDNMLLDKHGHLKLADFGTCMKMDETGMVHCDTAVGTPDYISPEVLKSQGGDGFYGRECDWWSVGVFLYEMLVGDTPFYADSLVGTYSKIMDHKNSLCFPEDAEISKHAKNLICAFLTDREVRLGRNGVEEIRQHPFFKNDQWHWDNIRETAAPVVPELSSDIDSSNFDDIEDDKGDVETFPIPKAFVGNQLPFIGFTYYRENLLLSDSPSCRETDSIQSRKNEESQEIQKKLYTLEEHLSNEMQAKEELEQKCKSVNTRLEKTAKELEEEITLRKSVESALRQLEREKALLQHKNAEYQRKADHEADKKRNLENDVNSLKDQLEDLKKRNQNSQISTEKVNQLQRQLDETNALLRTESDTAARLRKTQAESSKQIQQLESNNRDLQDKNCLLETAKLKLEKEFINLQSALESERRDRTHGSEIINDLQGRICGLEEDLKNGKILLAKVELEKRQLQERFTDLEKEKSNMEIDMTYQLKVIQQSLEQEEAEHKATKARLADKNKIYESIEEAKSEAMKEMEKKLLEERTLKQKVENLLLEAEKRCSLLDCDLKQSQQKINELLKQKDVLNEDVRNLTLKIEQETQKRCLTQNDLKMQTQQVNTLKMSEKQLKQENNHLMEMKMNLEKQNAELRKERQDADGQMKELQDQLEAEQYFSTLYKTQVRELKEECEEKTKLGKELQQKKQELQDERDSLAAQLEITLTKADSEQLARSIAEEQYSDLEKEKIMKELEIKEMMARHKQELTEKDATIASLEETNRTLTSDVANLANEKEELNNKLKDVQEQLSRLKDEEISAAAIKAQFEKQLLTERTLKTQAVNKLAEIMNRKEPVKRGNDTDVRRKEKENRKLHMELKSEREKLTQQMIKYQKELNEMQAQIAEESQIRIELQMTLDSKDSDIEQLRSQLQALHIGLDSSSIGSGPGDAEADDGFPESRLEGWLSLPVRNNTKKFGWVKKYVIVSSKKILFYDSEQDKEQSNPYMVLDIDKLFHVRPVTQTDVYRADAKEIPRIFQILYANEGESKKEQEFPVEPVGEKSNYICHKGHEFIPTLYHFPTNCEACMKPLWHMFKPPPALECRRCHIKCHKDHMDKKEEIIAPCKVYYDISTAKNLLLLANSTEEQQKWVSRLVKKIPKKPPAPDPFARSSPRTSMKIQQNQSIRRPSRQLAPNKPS
How it was run: (§2)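 First, percentage inhibition is computed for each test solution in a 10-point series, ATP held near Km. Then the concentration-inhibition curve is fitted with a four-parameter logistic equation to obtain IC50.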

WNK1 = molecular target: T2, WNK1 (Homo sapiens, UniProt Q9H4A3); test: Carna kinase panel screen; format: biochemical; details: read-out: % Inhibition ± SD
T2 construct: purchased Carna Biosciences
How it was run: as §2

CaMK2a = molecular target: T3, CaMK2a (Homo sapiens, UniProt Q9UQM7); test: Carna kinase panel screen; format: biochemical; details: read-out: % Inhibition ± SD
T3 construct: purchased Carna Biosciences
T3 sequence (Q9UQM7 whole entry): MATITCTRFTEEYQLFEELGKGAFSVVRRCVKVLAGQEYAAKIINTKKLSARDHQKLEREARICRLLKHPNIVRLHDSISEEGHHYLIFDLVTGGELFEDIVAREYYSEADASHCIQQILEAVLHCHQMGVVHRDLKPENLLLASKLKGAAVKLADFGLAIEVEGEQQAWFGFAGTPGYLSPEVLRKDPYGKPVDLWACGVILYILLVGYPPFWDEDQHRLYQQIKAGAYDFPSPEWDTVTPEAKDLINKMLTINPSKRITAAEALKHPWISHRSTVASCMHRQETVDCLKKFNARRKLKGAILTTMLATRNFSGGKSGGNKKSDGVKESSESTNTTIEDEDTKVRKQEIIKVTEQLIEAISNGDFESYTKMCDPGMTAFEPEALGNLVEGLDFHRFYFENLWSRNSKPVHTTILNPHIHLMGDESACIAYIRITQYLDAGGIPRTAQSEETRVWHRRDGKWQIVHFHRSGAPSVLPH
How it was run: (§3)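 10-pt curves; [ATP] ~Km; IC50 by 4PL fit of % inhibition.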

TTK = molecular target: T4, TTK (Homo sapiens, UniProt P33981); test: Carna kinase panel screen; format: biochemical; details: read-out: % Inhibition ± SD
T4 construct: purchased Carna Biosciences
How it was run: as §2

MST1 = molecular target: T5, MST1 (Homo sapiens, UniProt Q13043); test: Carna kinase panel screen; format: biochemical; details: read-out: % Inhibition ± SD
T5 construct: purchased Carna Biosciences
T5 sequence (Q13043 whole entry): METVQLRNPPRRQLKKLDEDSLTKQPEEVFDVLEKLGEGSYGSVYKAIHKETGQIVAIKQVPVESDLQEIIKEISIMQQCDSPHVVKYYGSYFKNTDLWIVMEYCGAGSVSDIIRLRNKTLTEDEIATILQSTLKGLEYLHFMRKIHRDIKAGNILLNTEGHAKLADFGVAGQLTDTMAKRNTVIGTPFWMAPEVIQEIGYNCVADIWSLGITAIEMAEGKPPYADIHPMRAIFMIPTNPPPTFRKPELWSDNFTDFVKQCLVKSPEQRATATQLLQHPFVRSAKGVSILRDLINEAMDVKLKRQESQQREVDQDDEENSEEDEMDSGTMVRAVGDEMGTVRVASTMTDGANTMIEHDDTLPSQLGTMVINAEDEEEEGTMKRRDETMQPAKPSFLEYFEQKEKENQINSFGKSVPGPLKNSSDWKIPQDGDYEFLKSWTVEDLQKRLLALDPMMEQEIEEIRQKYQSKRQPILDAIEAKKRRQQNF
How it was run: as §2

FYN = molecular target: T6, FYN (Homo sapiens, UniProt P06241); test: Carna kinase panel screen; format: biochemical; details: read-out: % Inhibition ± SD
T6 construct: purchased Carna Biosciences
How it was run: as §2

SRPK1 = molecular target: T7, SRPK1 (Homo sapiens, UniProt Q96SB4); test: Carna kinase panel screen; format: biochemical; details: read-out: % Inhibition ± SD
T7 construct: purchased Carna Biosciences
How it was run: as §2

p70S6Kb = molecular target: T8, p70S6Kb (Homo sapiens, UniProt Q9UBS0); test: Carna kinase panel screen; format: biochemical; details: read-out: % Inhibition ± SD
T8 construct: purchased Carna Biosciences
How it was run: as §2

FGFR3 = molecular target: T9, FGFR3 (Homo sapiens, UniProt P22607); test: Carna kinase panel screen; format: biochemical; details: read-out: % Inhibition ± SD
T9 construct: purchased Carna Biosciences
T9 sequence (P22607 23-806): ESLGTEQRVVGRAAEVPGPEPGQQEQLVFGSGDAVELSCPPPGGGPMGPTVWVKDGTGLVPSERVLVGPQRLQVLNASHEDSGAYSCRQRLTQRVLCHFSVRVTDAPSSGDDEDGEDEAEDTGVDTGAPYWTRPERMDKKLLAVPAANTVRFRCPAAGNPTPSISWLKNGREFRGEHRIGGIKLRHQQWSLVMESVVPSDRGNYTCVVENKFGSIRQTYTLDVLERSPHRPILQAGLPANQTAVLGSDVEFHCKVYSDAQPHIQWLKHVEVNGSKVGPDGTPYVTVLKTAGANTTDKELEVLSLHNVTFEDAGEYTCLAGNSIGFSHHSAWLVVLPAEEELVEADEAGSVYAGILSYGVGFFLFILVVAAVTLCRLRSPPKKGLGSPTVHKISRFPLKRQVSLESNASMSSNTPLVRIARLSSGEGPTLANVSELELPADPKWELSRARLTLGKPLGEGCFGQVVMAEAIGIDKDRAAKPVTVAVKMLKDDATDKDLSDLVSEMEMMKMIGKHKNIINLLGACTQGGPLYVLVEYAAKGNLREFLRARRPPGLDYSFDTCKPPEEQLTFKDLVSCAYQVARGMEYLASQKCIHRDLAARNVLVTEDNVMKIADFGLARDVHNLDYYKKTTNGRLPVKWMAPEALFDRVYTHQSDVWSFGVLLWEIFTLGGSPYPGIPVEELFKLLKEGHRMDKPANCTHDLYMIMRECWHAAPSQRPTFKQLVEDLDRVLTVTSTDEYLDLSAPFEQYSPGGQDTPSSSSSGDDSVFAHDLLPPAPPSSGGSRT
How it was run: as §2

EGFR[L858R] = molecular target: T10, EGFR[L858R] (Homo sapiens, UniProt P00533, L858R); test: Carna kinase panel screen; format: biochemical; details: read-out: % Inhibition ± SD
T10 construct: purchased Carna Biosciences
T10 sequence (P00533 25-1210 L858R): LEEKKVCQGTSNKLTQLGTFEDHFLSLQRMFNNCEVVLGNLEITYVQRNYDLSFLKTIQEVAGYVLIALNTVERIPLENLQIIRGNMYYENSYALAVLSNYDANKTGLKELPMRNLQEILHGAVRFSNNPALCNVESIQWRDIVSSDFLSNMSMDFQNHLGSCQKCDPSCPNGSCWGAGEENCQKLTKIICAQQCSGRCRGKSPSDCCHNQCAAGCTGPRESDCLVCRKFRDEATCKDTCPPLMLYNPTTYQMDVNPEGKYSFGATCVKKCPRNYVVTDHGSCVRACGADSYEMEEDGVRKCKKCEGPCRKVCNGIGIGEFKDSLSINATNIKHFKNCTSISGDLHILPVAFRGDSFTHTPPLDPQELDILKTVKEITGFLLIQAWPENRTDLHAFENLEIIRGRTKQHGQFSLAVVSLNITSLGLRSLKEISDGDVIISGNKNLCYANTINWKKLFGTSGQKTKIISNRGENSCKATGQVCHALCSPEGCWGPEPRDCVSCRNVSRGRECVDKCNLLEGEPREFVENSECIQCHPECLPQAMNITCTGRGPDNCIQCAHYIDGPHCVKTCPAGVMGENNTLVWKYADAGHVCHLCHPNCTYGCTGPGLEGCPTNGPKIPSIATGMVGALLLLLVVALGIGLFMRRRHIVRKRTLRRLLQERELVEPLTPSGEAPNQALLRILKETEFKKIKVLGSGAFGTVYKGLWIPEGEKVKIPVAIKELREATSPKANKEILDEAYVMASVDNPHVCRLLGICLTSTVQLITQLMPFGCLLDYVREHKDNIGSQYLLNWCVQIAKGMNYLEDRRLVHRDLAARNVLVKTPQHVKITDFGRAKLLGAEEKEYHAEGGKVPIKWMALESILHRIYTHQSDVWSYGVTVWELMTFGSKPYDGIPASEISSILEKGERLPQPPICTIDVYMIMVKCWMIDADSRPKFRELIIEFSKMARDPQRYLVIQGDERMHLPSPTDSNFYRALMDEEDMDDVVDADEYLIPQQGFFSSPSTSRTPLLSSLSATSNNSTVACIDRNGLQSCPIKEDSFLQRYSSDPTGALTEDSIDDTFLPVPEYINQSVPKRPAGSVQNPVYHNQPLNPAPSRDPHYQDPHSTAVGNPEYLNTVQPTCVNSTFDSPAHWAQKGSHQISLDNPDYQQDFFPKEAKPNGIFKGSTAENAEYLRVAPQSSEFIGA
How it was run: as §2

NEK6 = molecular target: T11, NEK6 (Homo sapiens, UniProt Q9HC98); test: Carna kinase panel screen; format: biochemical; details: read-out: % Inhibition ± SD
T11 construct: purchased Carna Biosciences
How it was run: as §2

PKD2 = molecular target: T12, PKD2 (Homo sapiens, UniProt Q9BZL6); test: Carna kinase panel screen; format: biochemical; details: read-out: % Inhibition ± SD
T12 construct: purchased Carna Biosciences
How it was run: as §2

EEF2K = molecular target: T13, EEF2K (Homo sapiens, UniProt O00418); test: Carna kinase panel screen; format: biochemical; details: read-out: % Inhibition ± SD
T13 construct: purchased Carna Biosciences
How it was run: as §3

AurC = molecular target: T14, AurC (Homo sapiens, UniProt Q9UQB9); test: Carna kinase panel screen; format: biochemical; details: read-out: % Inhibition ± SD
T14 construct: purchased Carna Biosciences
How it was run: as §3

CK1a = molecular target: T15, CK1a (Homo sapiens, UniProt P48729); test: Carna kinase panel screen; format: biochemical; details: read-out: % Inhibition ± SD
T15 construct: purchased Carna Biosciences
How it was run: as §2

MARK3 = molecular target: T16, MARK3 (Homo sapiens, UniProt P27448); test: Carna kinase panel screen; format: biochemical; details: read-out: % Inhibition ± SD
T16 construct: purchased Carna Biosciences
How it was run: as §2

MAPKAPK5 = molecular target: T17, MAPKAPK5 (Homo sapiens, UniProt Q8IW41); test: Carna kinase panel screen; format: biochemical; details: read-out: % Inhibition ± SD
T17 construct: purchased Carna Biosciences
T17 sequence (Q8IW41 whole entry): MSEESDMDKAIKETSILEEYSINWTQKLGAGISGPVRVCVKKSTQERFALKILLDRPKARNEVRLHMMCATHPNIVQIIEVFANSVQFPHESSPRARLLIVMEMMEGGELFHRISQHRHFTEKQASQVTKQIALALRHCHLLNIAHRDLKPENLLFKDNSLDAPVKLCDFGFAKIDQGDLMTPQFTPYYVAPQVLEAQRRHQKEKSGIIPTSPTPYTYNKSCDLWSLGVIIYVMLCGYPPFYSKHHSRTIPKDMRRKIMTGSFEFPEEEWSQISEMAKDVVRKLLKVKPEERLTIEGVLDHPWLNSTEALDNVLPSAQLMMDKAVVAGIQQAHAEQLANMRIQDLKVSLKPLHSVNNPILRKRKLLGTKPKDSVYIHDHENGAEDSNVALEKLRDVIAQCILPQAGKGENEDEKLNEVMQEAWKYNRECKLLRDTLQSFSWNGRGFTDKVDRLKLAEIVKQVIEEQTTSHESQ
How it was run: as §2

DCAMKL2 = molecular target: T18, DCAMKL2 (Homo sapiens, UniProt Q8N568); test: Carna kinase panel screen; format: biochemical; details: read-out: % Inhibition ± SD
T18 construct: purchased Carna Biosciences
How it was run: as §2

MUSK = molecular target: T19, MUSK (Homo sapiens, UniProt O15146); test: Carna kinase panel screen; format: biochemical; details: read-out: % Inhibition ± SD
T19 construct: purchased Carna Biosciences
How it was run: as §2

ABL[T315I] = molecular target: T20, ABL[T315I] (Homo sapiens, UniProt P00519, T315I); test: Carna kinase panel screen; format: biochemical; details: read-out: % Inhibition ± SD
T20 construct: purchased Carna Biosciences
How it was run: as §2

For `CC[C@H](Nc1nc(NCc2cnc(C)cc2C)c2ncn(C(C)C)c2n1)[C@@H](C)O` [Fadraciclib, 2-pentanol, 3-[[6-[[(4,6-dimethyl-3-pyridinyl)methyl]amino]-9-(1-methylethyl)-9Hpurin-2-yl]amino]-, (2R,3S)], the “duration of MCL1 suppression” value (MCL1) is listed as > 24 h, the IC50 (THP-1; Homo sapiens, THP-1, 72 h, THP-1, 72 h continuous, read-out: 72 h continuous IC50 ± SD) is listed as 570 ± 180 nM and the IC50 (THP-1; Homo sapiens, THP-1, 72 h, THP-1, value the 7 x 7 combination matrix spans, 72 h, read-out: IC50 value of each compound (single agent)) is listed as 430 nM. The IC50 (THP-1; Homo sapiens, THP-1, read-out: 6 h pulse IC50 ± SD, THP-1, 6 h pulse then 66 h release) was 1100 nM, the IC90 (THP-1; Homo sapiens, THP-1, 6 h pulse then 66 h release) was 6800 nM and the IC50 (THP-1; read-out: 6 h pulse IC50 ± SD, THP-1, 6 h pulse then 66 h release) was 1080 ± 230 nM. For the same compound, the “IC50, short pulse” value (A2780) was “submicromolar”, the IC50 (184A1; Homo sapiens, 184A1, 72 h, 184A1, continuous 72 h, read-out: continuous IC50 ± SD) was 250 ± 10 nM and the IC50 (184A1; Homo sapiens, 184A1, read-out: 8 h pulse IC50 ± SD, 184A1 (non-malignant), 8 h pulse, read at 72 h) was 3900 nM. The IC50 (184A1; read-out: 8 h pulse IC50 ± SD, 184A1 (non-malignant), 8 h pulse, read at 72 h) was 3870 ± 2100 nM, the IC50 (OCI-AML5; Homo sapiens, OCI-AML-5, 72 h, OCI-AML5, 72 h continuous, read-out: 72 h continuous IC50 ± SD) was 310 ± 130 nM and the IC90 (OCI-AML5; Homo sapiens, OCI-AML-5, OCI-AML5, 6 h pulse then 66 h release) was 18500 nM. The IC50 (OCI-AML5; Homo sapiens, OCI-AML-5, read-out: 6 h pulse IC50 ± SD, OCI-AML5, 6 h pulse then 66 h release) was 1440 nM, the IC50 (OCI-AML5; read-out: 6 h pulse IC50 ± SD, OCI-AML5, 6 h pulse then 66 h release) was 1450 ± 50 nM and the “sensitivity, 6 h pulse versus continuous 72 h” value (MDA-MB-231) was “sensitive to fadraciclib only after more prolonged treatment”. For the same compound, the IC50 (MOLM-13; Homo sapiens, MOLM-13, 72 h, MOLM-13, 72 h continuous, read-out: 72 h continuous IC50 ± SD) was 240 ± 50 nM, the IC50 (MOLM-13; Homo sapiens, MOLM-13, read-out: 6 h pulse IC50 ± SD, MOLM-13, 6 h pulse then 66 h release) was 260 nM and the IC90 (MOLM-13; Homo sapiens, MOLM-13, 6 h pulse then 66 h release) was 400 nM. For the same compound, the IC50 (MOLM-13; read-out: 6 h pulse IC50 ± SD, MOLM-13, 6 h pulse then 66 h release) was 250 ± 50 nM, the IC50 (KG-1; Homo sapiens, KG-1, 72 h, KG-1, 72 h continuous, read-out: 72 h continuous IC50 ± SD) was 350 ± 30 nM and the IC50 (KG-1; Homo sapiens, KG-1, read-out: 6 h pulse IC50 ± SD, KG-1, 6 h pulse then 66 h release) was 500 nM. For the same compound, the IC90 (KG-1; Homo sapiens, KG-1, 6 h pulse then 66 h release) was 3700 nM, the IC50 (KG-1; read-out: 6 h pulse IC50 ± SD, KG-1, 6 h pulse then 66 h release) was 470 ± 120 nM and the “sensitivity, 6 h pulse versus continuous 72 h” value (A549) was “sensitive to fadraciclib only after more prolonged treatment”. It also gave an inhibition at 1 µM (ROCK2) of 4.2%, an inhibition at 1 µM (WNK1) of -3.3% and an inhibition at 1 µM (CaMK2a) of -3.6 ± 0.1%. It also gave an inhibition at 1 µM (TTK) of 25.3 ± 4.5%, an inhibition at 1 µM (MST1) of 4 ± 0.1% and an inhibition at 1 µM (FYN) of 7.4 ± 0.3%. It also gave an inhibition at 1 µM (SRPK1) of 5.9 ± 0.2%, an inhibition at 1 µM (p70S6Kb) of 1.9% and an inhibition at 1 µM (FGFR3) of -5.6 ± 0.2%. For the same compound, the inhibition at 1 µM (EGFR[L858R]) was 1.7%, the inhibition at 1 µM (NEK6) was -16.6 ± 0.5% and the inhibition at 1 µM (PKD2) was -13.4 ± 0.6%. For the same compound, the inhibition at 1 µM (EEF2K) was -10.3 ± 0.2%, the inhibition at 1 µM (AurC) was 3 ± 0.2% and the inhibition at 1 µM (CK1a) was 8.2 ± 0.3%. It also gave an inhibition at 1 µM (MARK3) of -0.9 ± 0.1%, an inhibition at 1 µM (MAPKAPK5) of -14.5 ± 0.2% and an inhibition at 1 µM (DCAMKL2) of -12.4 ± 0.1%. For the same compound, the inhibition at 1 µM (MUSK) was 11.4 ± 0.3% and the inhibition at 1 µM (ABL[T315I]) was -13 ± 0.1%.
